How the values were obtained:
[1] = system: Human immunodeficiency virus 1; assay: Antiviral activity against wild type HIV1 3B infected in human MT4 cells assessed as reduction of virus-induced cytopathic effect after 4 days by MTT assay; format: functional, organism-based; conditions: Human immunodeficiency virus 1, 3B, MT4, 96 h
[2] = system: Human immunodeficiency virus 2; assay: Antiviral activity against HIV2 ROD infected in human MT4 cells assessed as reduction of virus-induced cytopathic effect after 4 days by MTT assay; format: functional, organism-based; conditions: Human immunodeficiency virus 2, ISOLATE ROD, MT4, 96 h
[3] = Cytotoxicity against human MT4 cells assessed as reduction in cell viability after 4 days by MTT assay; format: cell-based
[4] = Selectivity index, ratio of CC50 for human MT4 cells to EC50 for wild type HIV1 3B; format: toxicity; conditions: read-out: Ratio CC50/EC50
[5] = target: Human immunodeficiency virus type 1 reverse transcriptase (Human immunodeficiency virus 1, UniProt Q72547); assay: Inhibition of recombinant wild type HIV1 reverse transcriptase p66/p51 using poly (rA)/anoligo (dT)16 as template/primer assessed as inhibition of biotin-dUTP incorporation after 40 mins by Pico-Green staining based fluorescence assay
[6] = system: Human immunodeficiency virus 1; assay: Antiviral activity against HIV1 harboring reverse transcriptase L100I mutant infected in human MT4 cells assessed as reduction of virus-induced cytopathic effect after 4 days by MTT assay; format: functional, organism-based; conditions: Human immunodeficiency virus 1, MT4, 96 h
[7] = system: Human immunodeficiency virus 1; assay: Antiviral activity against HIV1 harboring reverse transcriptase K103N mutant infected in human MT4 cells assessed as reduction of virus-induced cytopathic effect after 4 days by MTT assay; format: functional, organism-based; conditions: Human immunodeficiency virus 1, MT4, 96 h
[8] = system: Human immunodeficiency virus 1; assay: Antiviral activity against HIV1 harboring reverse transcriptase Y181C mutant infected in human MT4 cells assessed as reduction of virus-induced cytopathic effect after 4 days by MTT assay; format: functional, organism-based; conditions: Human immunodeficiency virus 1, MT4, 96 h
[9] = system: Human immunodeficiency virus 1; assay: Antiviral activity against HIV1 harboring reverse transcriptase Y188L mutant infected in human MT4 cells assessed as reduction of virus-induced cytopathic effect after 4 days by MTT assay; format: functional, organism-based; conditions: Human immunodeficiency virus 1, MT4, 96 h
[10] = system: Human immunodeficiency virus 1; assay: Antiviral activity against HIV1 harboring reverse transcriptase E138K mutant infected in human MT4 cells assessed as reduction of virus-induced cytopathic effect after 4 days by MTT assay; format: functional, organism-based; conditions: Human immunodeficiency virus 1, MT4, 96 h
[11] = system: Human immunodeficiency virus 1; assay: Antiviral activity against HIV1 RES056 harboring reverse transcriptase K103 N/Y181C double mutant infected in human MT4 cells assessed as reduction of virus-induced cytopathic effect after 4 days by MTT assay; format: functional, organism-based; conditions: Human immunodeficiency virus 1, RES056, MT4, 96 h
[12] = system: Human immunodeficiency virus 1; assay: Antiviral activity against HIV1 harboring reverse transcriptase F227L/V106A double mutant infected in human MT4 cells assessed as reduction of virus-induced cytopathic effect after 4 days by MTT assay; format: functional, organism-based; conditions: Human immunodeficiency virus 1, MT4, 96 h

| SMILES | EC50 [1] [nM] | EC50 [2] [nM] | CC50 at 96 h [3] [nM] | selectivity ratio [4] | IC50 [5] [nM] | EC50 [6] [nM] | EC50 [7] [nM] | EC50 [8] [nM] | EC50 [9] [nM] | EC50 [10] [nM] | EC50 [11] [nM] | EC50 [12] [nM] |
| --- | --- | --- | --- | --- | --- | --- | --- | --- | --- | --- | --- | --- |
| Cc1cc(-c2c(C)cccc2C)cc(C)c1Nc1ccnc(Nc2ccc(C#N)cc2)n1 | 7.1 | > 2590 | 2590 | 364 | 37 | – | – | – | – | – | – | – |
| Cc1cc(C)cc(-c2cc(C)c(Nc3ccnc(Nc4ccc(C#N)cc4)n3)c(C)c2)c1 | 23 | > 4140 | 4140 | 177 | 116 | – | – | – | – | – | – | – |
| Cc1cccc(-c2cc(C)c(Nc3ccnc(Nc4ccc(C#N)cc4)n3)c(C)c2)c1 | 5.9 | > 3670 | 3670 | 622 | 30 | – | – | – | – | – | – | – |
| Cc1cc(-c2cc(Cl)cc(Cl)c2)cc(C)c1Nc1ccnc(Nc2ccc(C#N)cc2)n1 | 34 | > 4290 | 4290 | 125 | 46 | – | – | – | – | – | – | – |
| Cc1cc(-c2ccc(C(F)(F)F)cc2)cc(C)c1Nc1ccnc(Nc2ccc(C#N)cc2)n1 | 10 | > 4160 | 4160 | 418 | 67 | – | – | – | – | – | – | – |
| Cc1cc(-c2ccccc2C(F)(F)F)cc(C)c1Nc1ccnc(Nc2ccc(C#N)cc2)n1 | 6.9 | > 4210 | 4210 | 606 | 46 | – | – | – | – | – | – | – |
| Cc1cc(-c2ccccc2F)cc(C)c1Nc1ccnc(Nc2ccc(C#N)cc2)n1 | 1.4 | > 2120 | 2120 | 1540 | 9 | 12 | 3.2 | 8 | 130 | 7.8 | 230 | ≥ 390 |
| Cc1cc(-c2ccc(C#N)cc2)cc(C)c1Nc1ccnc(Nc2ccc(C#N)cc2)n1 | 1 | > 2080 | – | 2060 | 14 | 1.3 | 0.84 | 1.5 | 11 | 2 | 10 | ≥ 110 |
| Cc1ccnc2c1NC(=O)c1cccnc1N2C1CC1 [NEVIRAPINE] | 24 | – | > 4000 | – | – | 400 | 1850 | > 4000 | > 4000 | 58 | > 4000 | > 4000 |
| Cc1cc(-c2ccc(F)cc2)cc(C)c1Nc1ccnc(Nc2ccc(C#N)cc2)n1 | 1.4 | > 3990 | 4170 | 2950 | 17 | 10 | 2.3 | 8.3 | 160 | 8.1 | 190 | 320 |
| Cc1ccc(-c2cc(C)c(Nc3ccnc(Nc4ccc(C#N)cc4)n3)c(C)c2)cc1 | 3.6 | > 5570 | 5570 | 1540 | 19 | – | – | – | – | – | – | – |
| Cc1cc(-c2ccccc2Cl)cc(C)c1Nc1ccnc(Nc2ccc(C#N)cc2)n1 | 2.6 | > 3990 | 3990 | 1150 | 20 | – | – | – | – | – | – | – |
| COc1ccc(-c2cc(C)c(Nc3ccnc(Nc4ccc(C#N)cc4)n3)c(C)c2)cc1 | 2.4 | > 2890 | 2890 | 1200 | 27 | – | – | – | – | – | – | – |
| Cc1cc(-c2ccc(Cl)cc2)cc(C)c1Nc1ccnc(Nc2ccc(C#N)cc2)n1 | 3.7 | > 4190 | 4190 | 1130 | 26 | – | – | – | – | – | – | – |
| Cc1cc(-c2cccc(C#N)c2)cc(C)c1Nc1ccnc(Nc2ccc(C#N)cc2)n1 | 1.5 | > 920 | 920 | 601 | 11 | 17 | 2.3 | 11 | > 920 | 8.1 | 270 | > 920 |
| O=C1Nc2ccc(Cl)cc2[C@@](C#CC2CC2)(C(F)(F)F)O1 [EFAVIRENZ] | 0.43 | – | > 2000 | – | – | 1 | 19 | 1.5 | 59 | 1.6 | 40 | 50 |
| Cc1cn([C@H]2C[C@H](N=[N+]=[N-])[C@@H](CO)O2)c(=O)[nH]c1=O [ZIDOVUDINE] | 2.1 | – | > 2000 | > 971 | – | 1.3 | 1.9 | 1.7 | 1.6 | 2.2 | 1.5 | 1 |
| Cc1cc(-c2cccc(C(F)(F)F)c2)cc(C)c1Nc1ccnc(Nc2ccc(C#N)cc2)n1 | 8.4 | > 4030 | 4030 | 477 | 58 | – | – | – | – | – | – | – |
| Cc1cc(-c2cccc(F)c2)cc(C)c1Nc1ccnc(Nc2ccc(C#N)cc2)n1 | 1.7 | > 4120 | 4120 | 2380 | 12 | – | – | – | – | – | – | – |
| COc1ccccc1-c1cc(C)c(Nc2ccnc(Nc3ccc(C#N)cc3)n2)c(C)c1 | 3 | > 940 | 940 | 316 | 21 | – | – | – | – | – | – | – |
| Cc1cc(C#N)cc(C)c1Oc1nc(Nc2ccc(C#N)cc2)nc(N)c1Br [ETRAVIRINE] | 1.5 | – | > 2000 | > 1320 | – | 2.7 | 1.5 | 8.1 | 7.9 | 7.3 | 10 | 7 |
| Cc1ccccc1-c1cc(C)c(Nc2ccnc(Nc3ccc(C#N)cc3)n2)c(C)c1 | 2.4 | > 3820 | 3820 | 1580 | 18 | – | – | – | – | – | – | – |
| COc1cccc(-c2cc(C)c(Nc3ccnc(Nc4ccc(C#N)cc4)n3)c(C)c2)c1 | 2.9 | > 2990 | 2990 | 1050 | 27 | – | – | – | – | – | – | – |
| Cc1cc(-c2cccc(Cl)c2)cc(C)c1Nc1ccnc(Nc2ccc(C#N)cc2)n1 | 5.3 | > 2160 | 2160 | 409 | 20 | – | – | – | – | – | – | – |
| Cc1cc(-c2cc(F)cc(F)c2)cc(C)c1Nc1ccnc(Nc2ccc(C#N)cc2)n1 | 33 | > 3910 | 3910 | 120 | 52 | – | – | – | – | – | – | – |
